Values of other authors as cited in patent US6543389B2, “Insecticidal pet collar” (Pfizer Inc., priority 2001, dated 2003).

Key:
ticks [1] = details: as compared with fipronil
ticks [2] = details: collars as currently marketed, extruded matrix containing about 9% by weight of amitraz
alpha-2 adrenoceptor = details: affected dogs, injected intramuscularly

Row | Compound | effect on numbers of live feeding ticks, egg hatchability, and larval viability (ticks [1]) | duration of tick protection (ticks [2]) | reversing effects of amitraz toxicosis (alpha-2 adrenoceptor)
1 | Cc1ccc(N=CN(C)C=Nc2ccc(C)cc2C)c(C)c1 [Amitraz, 1,5-di-(2,4-dimethylphenyl)-3-methyl-1,3,5-triazapenta-1,4-diene] | significantly greater effect | about four | –
2 | CCC1(c2c[nH]cn2)Cc2ccccc2C1 [atipamezole, 4-(2-ethyl-2,3-dihydro-1H-inden-2-yl)-1H-imidazole] | – | – | effective in reversing effects of amitraz toxicosis
